Laboratory results reported in patent US5480987A, “2-substituted alkyl-3-carboxy carbapenems as antibiotics and a method of producing them” (American Cyanamid Company, priority 1994, dated 1996).
Counter-ions that a name gives are not always drawn.

What was measured:
Assay type in all cases: cell-based
E. coli ATCC 25922 = assay: In vitro antibacterial activity, MIC by tube dilution, Ec(1); conditions: Nutrient Broth; for MIC: Escherichia coli, ATCC25922, overnight incubation at 37° C., read-out: Minimum Inhibitory Concentration (MIC)
E. coli ATCC 35218 = assay: In vitro antibacterial activity, MIC by tube dilution, Ec(2); conditions: Nutrient Broth; for MIC: Escherichia coli, ATCC35218, overnight incubation at 37° C., read-out: Minimum Inhibitory Concentration (MIC)
Staph. aureus ATCC 29213 = assay: In vitro antibacterial activity, MIC by tube dilution, SA(1); conditions: Nutrient Broth; for MIC: Staphylococcus aureus, ATCC29213, overnight incubation at 37° C., read-out: Minimum Inhibitory Concentration (MIC)
Staph. aureus ACCC 25923 = assay: In vitro antibacterial activity, MIC by tube dilution, SA(2); conditions: Nutrient Broth; for MIC: Staphylococcus aureus, ACCC25923, overnight incubation at 37° C., read-out: Minimum Inhibitory Concentration (MIC)
Ser. marceslens = assay: In vitro antibacterial activity, MIC by tube dilution, SM; conditions: overnight incubation at 37° C., Nutrient Broth; for MIC: read-out: Minimum Inhibitory Concentration (MIC)
Ent. cloacae = assay: In vitro antibacterial activity, MIC by tube dilution, Ent C; conditions: overnight incubation at 37° C., Nutrient Broth; for MIC: Enterobacter cloacae, read-out: Minimum Inhibitory Concentration (MIC)
E. Coli-OXA-2 = assay: In vitro antibacterial activity of carbapenem, piperacillin and 1:1 combination; conditions: single agent
Experimental: (§1) A sample of the carbapenems prepared in this invention is tested in combination with the penicillin Piperacillin. The enhanced combined synergistic antibacterial activity is representative of the anti β-lactamase properties of the carbapenems in this invention (Table 2).

E. Coli-OXA-4 = assay: as above; conditions: single agent
Experimental: as §1

E. Coli-OXA-5 = assay: as above; conditions: single agent
Experimental: as §1

E. Coli-OXA-7 = assay: as above; conditions: single agent
Experimental: as §1

Pseudomonas OXA-6 = assay: as above; conditions: single agent
Experimental: as §1

SMILES | MIC (E. coli ATCC 25922) [µg/mL] | MIC (E. coli ATCC 35218) [µg/mL] | MIC (Staph. aureus ATCC 29213) [µg/mL] | MIC (Staph. aureus ACCC 25923) [µg/mL] | MIC (Ser. marceslens) [µg/mL] | MIC (Ent. cloacae) [µg/mL] | M.I.C. (E. Coli-OXA-2) [µg/mL] | M.I.C. (E. Coli-OXA-4) [µg/mL] | M.I.C. (E. Coli-OXA-5) [µg/mL] | M.I.C. (E. Coli-OXA-7) [µg/mL] | M.I.C. (Pseudomonas OXA-6) [µg/mL] | Minimum Inhibitory Concentration (MIC) (E. coli ATCC 25922; overnight incubation at 37° C.) [µg/mL] | Minimum Inhibitory Concentration (MIC) (E. coli ATCC 35218; overnight incubation at 37° C.) [µg/mL] | Minimum Inhibitory Concentration (MIC) (Staph. aureus ATCC 29213; overnight incubation at 37° C.) [µg/mL] | Minimum Inhibitory Concentration (MIC) (Staph. aureus ACCC 25923; overnight incubation at 37° C.) [µg/mL] | Minimum Inhibitory Concentration (MIC) (Ser. marceslens) [µg/mL] | Minimum Inhibitory Concentration (MIC) (Ent. cloacae) [µg/mL]
CC(O)C1C(=O)N2C(C(=O)O)=C(CS(=O)(=O)c3cccs3)CC12 (stereo not drawn) [Example 10, [5R-[5Alpha,6alpha(R*)]]-6-(1-hydroxyethyl)-3-[(2-thienylsulfonyl)methyl]-7-oxo-1-azabicyclo[3.2.0]-hept-2-ene-2-carboxylic acid, monosodium salt] | 1 | 1 | 0.06 | 0.06 | 32 | 32 |  |  |  |  |  |  |  |  |  |  | 
CCN1CCN(C(=O)N[C@@H](C(=O)N[C@@H]2C(=O)N3[C@@H]2SC(C)(C)[C@@H]3C(=O)O)c2ccccc2)C(=O)C1=O [Piperacillin, reference compound] |  |  |  |  |  |  | 16 | 8 | 2 | 128 | 32 |  |  |  |  |  | 
COC(=O)C(Cl)=C1CC2C(C(C)O)C(=O)N2C1C(=O)[O-].[Na+] (stereo not drawn) [Example 44, (2R-[2Alpha,3(R* or S*),5alpha,6alpha(R*)]]-3-(1-chloro-2-methoxy-2-oxoethylidene)-6-(1-hydroxyethyl)-7-oxo-1-azabicyclo[3.2.0]heptane-2-carboxylic acid, monosodium salt] |  |  |  |  |  |  |  |  |  |  |  | 128 | 128 | 64 | 64 | 128 | 128
CC(O)C1C(=O)N2C(C(=O)O)=C(CS(=O)(=O)c3ccc(F)cc3)CC12 (stereo not drawn) [Example 48, [5R-[5Alpha,6alpha(R*)]]3-[[fluorophenyl)sulfonyl]methyl]-6-(1-hydroxyethyl)-7-oxo-1-azabicyclo[3.2.0]hept-2-ene-2-carboxylic acid, monosodium salt] | 8 | 8 | 0.06 | 0.06 | 32 | 64 | 32 | 32 | 32 | 16 | 128 |  |  |  |  |  | 
